pKi: −log10 of the molar value.
Target: T1, GST-tagged-Wee1 kinase (Homo sapiens, UniProt P30291)
T1 construct: purchased Carnabio (Carna Biosciences) 05-177
Assay: Wee1 time-resolved fluorescence equilibrium binding assay (displacement of Oregon Green-labeled ATP-competitive kinase probe)
Details: read-out: Wee-1 inhibition (Ki)
Outline: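 Ki values derive from competitive displacement, under equilibrium, of a fast-reversible ATP-site Oregon Green kinase probe from GST-tagged Wee1, detected by time-resolved fluorescence.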

T1 sequence (P30291 whole entry): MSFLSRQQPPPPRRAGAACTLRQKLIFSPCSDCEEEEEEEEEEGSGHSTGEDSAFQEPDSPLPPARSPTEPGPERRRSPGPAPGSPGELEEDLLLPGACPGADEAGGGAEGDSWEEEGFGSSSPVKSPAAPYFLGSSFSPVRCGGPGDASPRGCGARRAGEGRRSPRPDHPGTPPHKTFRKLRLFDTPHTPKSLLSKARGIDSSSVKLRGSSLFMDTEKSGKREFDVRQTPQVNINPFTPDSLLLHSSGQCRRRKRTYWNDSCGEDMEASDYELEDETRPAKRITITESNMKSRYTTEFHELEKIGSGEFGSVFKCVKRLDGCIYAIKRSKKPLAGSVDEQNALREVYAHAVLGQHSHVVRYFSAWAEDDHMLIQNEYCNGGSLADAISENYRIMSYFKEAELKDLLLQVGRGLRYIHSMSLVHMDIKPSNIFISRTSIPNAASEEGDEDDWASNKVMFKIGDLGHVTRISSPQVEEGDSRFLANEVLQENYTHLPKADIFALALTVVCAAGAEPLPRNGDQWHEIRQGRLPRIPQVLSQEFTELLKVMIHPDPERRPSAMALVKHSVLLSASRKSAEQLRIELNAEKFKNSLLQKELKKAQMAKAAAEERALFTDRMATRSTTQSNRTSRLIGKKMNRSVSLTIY

SMILES	pKi
O=C(Nc1ccc(Nc2ncc3c(=O)n(-c4ccccc4Cl)c4nccn4c3n2)cc1)C1CCC(O)CC1 (stereo not drawn) [Example 59, N-(4-{[6-(2-chlorophenyl)-5-oxo-5,6-dihydroimidazo[1,2-a]pyrimido[5,4-e]pyrimidin-2-yl]amino}phenyl)-4-hydroxycyclohexanecarboxamide]	7.00 to 8.00
O=c1c2cnc(Nc3ccc4c(c3)CC(N3CC[C@H](F)C3)C4)nc2n2ccnc2n1-c1c(F)cccc1Cl (stereo partly drawn) [Example 256, 6-(2-chloro-6-fluorophenyl)-2-({2-[(3S)-3-fluoropyrrolidin-1-yl]-2,3-dihydro-1H-inden-5-yl}amino)imidazo[1,2-a]pyrimido[5,4-e]pyrimidin-5(6H)-one]	> 8.00
CN(C)C1Cc2ccc(Nc3ncc4c(=O)n(-c5c(F)cc(F)cc5Cl)c5nccn5c4n3)cc2C1 (stereo not drawn) [Example 188, 6-(2-chloro-4,6-difluorophenyl)-2-{[2-(dimethylamino)-2,3-dihydro-1H-inden-5-yl]amino}imidazo[1,2-a]pyrimido[5,4-e]pyrimidin-5(6H)-one]	> 8.00
O=c1c2cnc(Nc3ccc(N[C@H]4CN5CCC4CC5)cc3)nc2n2ccnc2n1-c1ccccc1Cl [Example 245, 2-({4-[(3R)-1-azabicyclo[2.2.2]oct-3-ylamino]phenyl}amino)-6-(2-chlorophenyl)imidazo[1,2-a]pyrimido[5,4-e]pyrimidin-5(6H)-one]	> 8.00
O=c1c2cnc(Nc3ccc(N4CCNCC4)c(C(F)(F)F)c3)nc2n2ccnc2n1-c1c(Cl)cccc1Cl [Example 156, 6-(2,6-dichlorophenyl)-2-{[4-(piperazin-1-yl)-3-(trifluoromethyl)phenyl]amino}imidazo[1,2-a]pyrimido[5,4-e]pyrimidin-5(6H)-one]	> 8.00
O=c1c2cnc(Nc3cc(F)c(N4CCNCC4)c(F)c3)nc2n2ccnc2n1-c1c(Cl)cccc1Cl [Example 129, 6-(2,6-dichlorophenyl)-2-{[3,5-difluoro-4-(piperazin-1-yl)phenyl]amino}imidazo[1,2-a]pyrimido[5,4-e]pyrimidin-5(6H)-one]	> 8.00
CN1C(C)(C)c2ccc(Nc3ncc4c(=O)n(-c5ccccc5Cl)c5nccn5c4n3)cc2C1(C)C [Example 147, 6-(2-chlorophenyl)-2-[(1,1,2,3,3-pentamethyl-2,3-dihydro-1H-isoindol-5-yl)amino]imidazo[1,2-a]pyrimido[5,4-e]pyrimidin-5(6H)-one]	> 8.00
O=c1c2cnc(Nc3ccc(NC4CCNCC4)cc3)nc2n2ccnc2n1-c1c(Cl)cccc1Cl [Example 308, 6-(2,6-dichlorophenyl)-2-{[4-(piperidin-4-ylamino)phenyl]amino}imidazo[1,2-a]pyrimido[5,4-e]pyrimidin-5(6H)-one]	> 8.00
O=c1c2cnc(Nc3cnc4c(c3)CNCC4)nc2n2ccnc2n1-c1c(F)cccc1Cl [Example 277, 6-(2-chloro-6-fluorophenyl)-2-(5,6,7,8-tetrahydro-1,6-naphthyridin-3-ylamino)imidazo[1,2-a]pyrimido[5,4-e]pyrimidin-5(6H)-one]	7.00 to 8.00
O=c1c2cnc(Nc3ccc(NCCCn4ccnc4)cc3)nc2n2ccnc2n1-c1ccccc1Cl [Example 269, 6-(2-chlorophenyl)-2-[(4-{[3-(1H-imidazol-1-yl)propyl]amino}phenyl)amino]imidazo[1,2-a]pyrimido[5,4-e]pyrimidin-5(6H)-one]	> 8.00
O=c1[nH][nH]c2c(-c3ccc(Nc4ncc5c(=O)n(-c6ccccc6Cl)c6nccn6c5n4)cc3)cccc12 [Example 223, 6-(2-chlorophenyl)-2-{[4-(3-oxo-2,3-dihydro-1H-indazol-7-yl)phenyl]amino}imidazo[1,2-a]pyrimido[5,4-e]pyrimidin-5(6H)-one]	> 8.00
O=c1c2cnc(Nc3ccc4c(c3)CC(NCCF)C4)nc2n2ccnc2n1-c1c(F)cccc1Cl (stereo not drawn) [Example 257, 6-(2-chloro-6-fluorophenyl)-2-({2-[(2-fluoroethyl)amino]-2,3-dihydro-1H-inden-5-yl}amino)imidazo[1,2-a]pyrimido[5,4-e]pyrimidin-5(6H)-one]	> 8.00
CN1CCN(c2ccc(Nc3ncc4c(=O)n(-c5c(Cl)cc(F)cc5Cl)c5nccn5c4n3)cc2)CC1 [Example 123, 6-(2,6-dichloro-4-fluorophenyl)-2-{[4-(4-methylpiperazin-1-yl)phenyl]amino}imidazo[1,2-a]pyrimido[5,4-e]pyrimidin-5(6H)-one]	> 8.00
Cc1cc(Nc2ncc3c(=O)n(-c4ccccc4Cl)c4nccn4c3n2)ccc1N1CCCN(C)CC1 [Example 37, 6-(2-chlorophenyl)-2-{[3-methyl-4-(4-methyl-1,4-diazepan-1-yl)phenyl]amino}imidazo[1,2-a]pyrimido[5,4-e]pyrimidin-5(6H)-one]	> 8.00
O=c1c2cnc(Nc3ccc(-n4cccn4)cc3)nc2n2ccnc2n1-c1ccccc1Cl [Example 89, 6-(2-chlorophenyl)-2-{[4-(1H-pyrazol-1-yl)phenyl]amino}imidazo[1,2-a]pyrimido[5,4-e]pyrimidin-5(6H)-one]	7.00 to 8.00
O=c1c2cnc(Nc3ccc4c(c3)CNCC4)nc2n2ccnc2n1-c1c(Cl)cccc1Cl [Example 111, 6-(2,6-dichlorophenyl)-2-(1,2,3,4-tetrahydroisoquinolin-7-ylamino)imidazo[1,2-a]pyrimido[5,4-e]pyrimidin-5(6H)-one]	> 8.00
NC(=O)C1CCCN(c2ccc(Nc3ncc4c(=O)n(-c5ccccc5Cl)c5nccn5c4n3)cc2)C1 (stereo not drawn) [Example 272, 1-(4-{[6-(2-chlorophenyl)-5-oxo-5,6-dihydroimidazo[1,2-a]pyrimido[5,4-e]pyrimidin-2-yl]amino}phenyl)piperidine-3-carboxamide]	7.00 to 8.00
CCc1cc(Nc2ncc3c(=O)n(-c4ccccc4Cl)c4nccn4c3n2)ccc1N1CCN(C)CC1 [Example 112, 6-(2-chlorophenyl)-2-{[3-ethyl-4-(4-methylpiperazin-1-yl)phenyl]amino}imidazo[1,2-a]pyrimido[5,4-e]pyrimidin-5(6H)-one]	> 8.00
O=c1c2cnc(Nc3ccc(CO)cc3)nc2n2ccnc2n1-c1ccccc1Cl [Example 87, 6-(2-chlorophenyl)-2-{[4-(hydroxymethyl)phenyl]amino}imidazo[1,2-a]pyrimido[5,4-e]pyrimidin-5(6H)-one]	7.00 to 8.00
CC(C)NCCN(c1ccc(Nc2ncc3c(=O)n(-c4c(Cl)cccc4Cl)c4nccn4c3n2)cc1)C(C)C [Example 328, 6-(2,6-dichlorophenyl)-2-[(4-{propan-2-yl[2-(propan-2-ylamino)ethyl]amino}phenyl)amino]imidazo[1,2-a]pyrimido[5,4-e]pyrimidin-5(6H)-one]	> 8.00
O=c1c2cnc(Nc3ccncc3)nc2n2ccnc2n1-c1ccccc1Cl [Example 3, 6-(2-chlorophenyl)-2-(pyridin-4-ylamino)imidazo[1,2-a]pyrimido[5,4-e]pyrimidin-5(6H)-one]	< 7.00
O=c1c2cnc(Nc3ccc(N4CC5(CCNCC5)C4)cc3)nc2n2ccnc2n1-c1c(Cl)cccc1Cl [Example 314, 2-{[4-(2,7-diazaspiro[3.5]non-2-yl)phenyl]amino}-6-(2,6-dichlorophenyl)imidazo[1,2-a]pyrimido[5,4-e]pyrimidin-5(6H)-one]	> 8.00
CN1C[C@H]2CCN(c3ccc(Nc4ncc5c(=O)n(-c6c(Cl)cccc6Cl)c6nccn6c5n4)cc3)[C@H]2C1 [Example 326, 6-(2,6-dichlorophenyl)-2-({4-[(3aR,6aR)-5-methylhexahydropyrrolo[3,4-b]pyrrol-1(2H)-yl]phenyl}amino)imidazo[1,2-a]pyrimido[5,4-e]pyrimidin-5(6H)-one]	> 8.00
CN(C)C1Cc2ccc(Nc3ncc4c(=O)n(-c5c(Cl)cc(F)cc5Cl)c5nccn5c4n3)cc2C1 (stereo not drawn) [Example 126, 6-(2,6-dichloro-4-fluorophenyl)-2-{[2-(dimethylamino)-2,3-dihydro-1H-inden-5-yl]amino}imidazo[1,2-a]pyrimido[5,4-e]pyrimidin-5(6H)-one]	> 8.00
CC1(C)CN(Cc2cc(F)cc(C(F)(F)F)c2)Cc2cc(Nc3ncc4c(=O)n(-c5ccccc5Cl)c5nccn5c4n3)ccc21 [Example 358, 6-(2-chlorophenyl)-2-({2-[3-fluoro-5-(trifluoromethyl)benzyl]-4,4-dimethyl-1,2,3,4-tetrahydroisoquinolin-7-yl}amino)imidazo[1,2-a]pyrimido[5,4-e]pyrimidin-5(6H)-one]	7.00 to 8.00
CCCNC1Cc2ccc(Nc3ncc4c(=O)n(-c5c(F)cccc5Cl)c5nccn5c4n3)cc2C1 (stereo not drawn) [Example 258, 6-(2-chloro-6-fluorophenyl)-2-{[2-(propylamino)-2,3-dihydro-1H-inden-5-yl]amino}imidazo[1,2-a]pyrimido[5,4-e]pyrimidin-5(6H)-one]	> 8.00
Cc1cc(Nc2ncc3c(=O)n(-c4ccccc4Cl)c4nccn4c3n2)ccc1N1CCNCC1 [Example 104, 6-(2-chlorophenyl)-2-{[3-methyl-4-(piperazin-1-yl)phenyl]amino}imidazo[1,2-a]pyrimido[5,4-e]pyrimidin-5(6H)-one]	> 8.00
CN(C)CCN1CCc2cc(Nc3ncc4c(=O)n(-c5ccccc5Cl)c5nccn5c4n3)ccc21 [Example 93, 6-(2-chlorophenyl)-2-({1-[2-(dimethylamino)ethyl]-2,3-dihydro-1H-indol-5-yl}amino)imidazo[1,2-a]pyrimido[5,4-e]pyrimidin-5(6H)-one]	> 8.00
CN1CCN(c2ccc(Nc3ncc4c(=O)n(-c5c(F)cccc5F)c5nccn5c4n3)cc2)CC1 [Example 98, 6-(2,6-difluorophenyl)-2-{[4-(4-methylpiperazin-1-yl)phenyl]amino}imidazo[1,2-a]pyrimido[5,4-e]pyrimidin-5(6H)-one]	7.00 to 8.00
CN1Cc2cc(Nc3ncc4c(=O)n(-c5c(F)cccc5Cl)c5nccn5c4n3)ccc2C(C)(C)C1 [Example 97, 6-(2-chloro-6-fluorophenyl)-2-[(2,4,4-trimethyl-1,2,3,4-tetrahydroisoquinolin-7-yl)amino]imidazo[1,2-a]pyrimido[5,4-e]pyrimidin-5(6H)-one]	> 8.00
